Values quoted from earlier work as cited in patent US8956669B2, “Anticancer and antimicrobial compounds from antarctic extremophilic microorgansims” (priority 2009, dated 2015).
Marks after values point to notes of the source that are not given here.

Legend:
Mycobacterium smegmatis = conditions: literature values, Table 2
[1] = tested on: Mycobacterium tuberculosis; conditions: literature values, Table 2

| Compound | MIC against Mycobacterium smegmatis (Mycobacterium smegmatis) | MIC against Mycobacterium tuberculosis [1] |
| --- | --- | --- |
| O=c1cc(-c2ccccc2O)oc2cc(O)cc(O)c12 [5,7,2′-trihydroxyflavone] | 31^h μg/ml | 10^h μg/ml |
| C=CCS[S+]([O-])CC=C (stereo not drawn) [Allicin] |  | 25^k μg/ml |
| O=c1cc(-c2ccccc2)oc2cc(O)c(O)c(O)c12 [Baicalein] | 64^a μg/ml |  |
| O=C(O)[C@H]1O[C@@H](Oc2cc3oc(-c4ccccc4)cc(=O)c3c(O)c2O)[C@H](O)[C@@H](O)[C@@H]1O [Baicalin] | 256^a μg/ml |  |
| COc1ccc(-c2coc3cc(O)cc(O)c3c2=O)cc1 [Biochanin A] | 256^a μg/ml |  |
| CN(C)CCCN1c2ccccc2Sc2ccc(Cl)cc21 [Chlorpromazine] | 64^a μg/ml |  |
| O=C(O)c1cn(C2CC2)c2cc(N3CCNCC3)c(F)cc2c1=O [Ciprofloxacin] | 1^c μg/ml | 0.5^g μg/ml |
| O=c1c(-c2ccc(O)cc2)coc2cc(O)ccc12 [Daidzein] | 256^a μg/ml |  |
| Cc1cc(O)c2c(c1)C(=O)C(c1c(C)cc3c(c1O)C(=O)C=CC3=O)=CC2=O [Diospyrin] | 100^j μg/ml | 100^j μg/ml |
| O=c1c(-c2ccc(O)cc2)coc2cc(O)cc(O)c12 [Genistein] | 256^a μg/ml |  |
| NNC(=O)c1ccncc1 [Isoniazid] | 5^b μg/ml | 0.1^f μg/ml |
| O=c1cc(-c2ccc(O)c(O)c2)oc2cc(O)cc(O)c12 [Luteolin] | 32^a μg/ml | 200^d μg/ml |
| O=c1c(O)c(-c2cc(O)c(O)c(O)c2)oc2cc(O)cc(O)c12 [Myricetin] | 32^a μg/ml |  |
| COC(=O)[C@H]1[C@H]2C[C@@H]3c4[nH]c5cc(OC)ccc5c4CCN3C[C@H]2C[C@@H](OC(=O)c2cc(OC)c(OC)c(OC)c2)[C@@H]1OC [Reserpine] | 128^a μg/ml |  |
| Oc1ccc(C=Cc2cc(O)cc(O)c2)cc1 [Resveratrol] | 64^a μg/ml |  |
| CO[C@H]1/C=C/O[C@@]2(C)Oc3c(C)c(O)c4c(O)c(c(/C=N/N5CCN(C)CC5)c(O)c4c3C2=O)NC(=O)/C(C)=C\C=C\[C@H](C)[C@H](O)[C@@H](C)[C@@H](O)[C@@H](C)[C@H](OC(C)=O)[C@@H]1C [Rifampcin] | 1^b μg/ml | 0.1^f μg/ml |
| COc1ccc(CCN(C)CCCC(C#N)(c2ccc(OC)c(OC)c2)C(C)C)cc1OC (stereo not drawn) [Verapamil] | 256^a μg/ml |  |
| Cc1cc(O)c2c(c1)C(=O)c1c(oc3c1c(=O)oc1cccc(C)c13)C2=O [crassiflorone] | 1.22^l μg/ml | 39.06^l μg/ml |
| CC1=CC(=O)c2c(O)cccc2C1=O [plumbagin] | 1.22^l μg/ml | 39.06^l μg/ml |
| Diospyrone | 1.22^l μg/ml | 39.06^l μg/ml |
| Laburnetin |  | 4.88^e μg/ml |
